The values below come from patent publication US20260209214A1, “LSD1 MODULATORS” (RECURSION PHARMACEUTICALS, INC., priority 2022, published 2026).

For this experiment, the target named is Recombinant human LSD1 (Homo sapiens, UniProt O60341). As to the kind of experiment: LSD1 inhibition assay (HTRF LSD1 Histone H3K4 mono-demethylation assay, me1->me0). The format is biochemical. The settings on record: 20 nM recombinant human LSD1, 95 nM H3K4(me1) biotinylated peptide, 15 min preincubation, 60 min at 25° C., read-out: LSD1 inhibition IC50 (nM range). A digest of the protocol:
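HTRF demethylation (me1->me0) read-out: streptavidin-XL665 and anti-H3K4me0 cryptate added after reaction, ratio measured after 90 min dark. Reaction: 95 nM H3K4me1 biotin-peptide, 20 nM LSD1 (15-min compound pre-incubation), 60 min, 25 °C, buffer pH 8.5 plus FAD and DTT; 4-parameter logistic IC50.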

Consider `N#Cc1ccc(-c2cc(CC3CNCCO3)ccc2NCc2cnn3c2CCCC3)cc1F` (stereo not drawn) [Example 117, 3-fluoro-5′-[(morpholin-2-yl)methyl]-2′-[{{4H,5H,6H,7H-pyrazolo[1,5-a]pyridin-3-yl}methyl)amino]-[1,1′-biphenyl]-4-carbonitrile], for which the half-maximal inhibitory concentration (IC50) was greater than 1000 nM. Regarding `N#Cc1ccc(-c2cc(CC3CNCCO3)ccc2N2CCCC3(CCOC3)C2)cc1F` (stereo not drawn) [Example 118, 3-fluoro-5′-[(morpholin-2-yl)methyl]-2′-{2-oxa-7-azaspiro[4.5]decan-7-yl}-[1,1′-biphenyl]-4-carbonitrile], the IC50 was in the range of 100 to 1000 nM. With `N#Cc1ccc(-c2cc(CC3CNCCO3)ccc2N2CCC3(CCOC3)C2)cc1F` (stereo not drawn) [Example 119, 3-fluoro-5′-[(morpholin-2-yl)methyl]-2′-{2-oxa-7-azaspiro[4.4]nonan-7-yl}-[1,1′-biphenyl]-4-carbonitrile] the figure was 100 to 1000 nM. With `CN(C[C@H]1CCCOC1)c1ccc(CC2CNCCO2)cc1-c1ccc(C#N)c(F)c1` (stereo partly drawn) [Example 120, 3-fluoro-2′-[methyl({[(3R)-oxan-3-yl]methyl})amino]-5′-[(morpholin-2-yl)methyl]-[1,1′-biphenyl]-4-carbonitrile] the figure was 100 to 1000 nM; with `Cc1cc(Oc2ccc(CC3CNCCO3)cc2-c2ccc(C#N)c(F)c2)ccn1` (stereo not drawn) [Example 121, 3-fluoro-2′-[(2-methylpyridin-4-yl)oxy]-5′-[(morpholin-2-yl)methyl]-[1,1′-biphenyl]-4-carbonitrile], 100 to 1000 nM; with `CC(C)C1(O)CN(c2ccc(CC3CNCCO3)cc2-c2ccc(C#N)c(F)c2)C1` (stereo not drawn) [Example 122, 3-fluoro-2′-[3-hydroxy-3-(propan-2-yl)azetidin-1-yl]-5′-[(morpholin-2-yl)methyl]-[1,1′-biphenyl]-4-carbonitrile], 100 to 1000 nM. Consider `N#Cc1ccc(-c2cc(CC3CNCCO3)ccc2N[C@H]2CCCOC2)cc1F` (stereo partly drawn) [Example 123, 3-fluoro-5′-[(morpholin-2-yl)methyl]-2′-{[(3S)-oxan-3-yl]amino}-[1,1′-biphenyl]-4-carbonitrile], for which the half-maximal inhibitory concentration (IC50) was greater than 1000 nM. Take `Cc1ccncc1-c1ccc(CC2CNCCO2)cc1-c1ccc(C#N)c(F)c1` (stereo not drawn) [Example 124, 3-fluoro-2′-(4-methylpyridin-3-yl)-5′-[(morpholin-2-yl)methyl]-[1,1′-biphenyl]-4-carbonitrile]: the IC50 lay in the range of 100 to 1000 nM. As for `CNC1CCN(c2cccc(-c3ccc(C#N)c(F)c3)c2C2CC2)CC1` [Example 125, 2'-cyclopropyl-3-fluoro-3'-[4-(methylamino)piperidin-1-yl]-[1,1'-biphenyl]-4-carbonitrile], the figure is 100 to 1000 nM; as for `COCC1(O)CCN(c2ccc(CC3CNCCO3)cc2-c2ccc(C#N)c(F)c2)CC1` (stereo not drawn) [Example 126, COCC1(O)CCN(CC1)c2ccc(CC3CNCCO3)cc2c4ccc(C#N)c(F)c4], 100 to 1000 nM; as for `N#Cc1ccc(-c2cc(CC3CNCCO3)ccc2N2CC3(CCOC3)C2)cc1F` (stereo not drawn) [Example 127], 100 to 1000 nM. `N#Cc1ccc(-c2cccc(CC3CNCCO3)c2-c2cnccn2)cc1F` (stereo not drawn) [Example 128, 3-fluoro-3′-[(morpholin-2-yl)methyl]-2′-(pyrazin-2-yl)-[1,1′-biphenyl]-4-carbonitrile]: the concentration for half-maximal inhibition (IC50) was in the range of 25 to 100 nM. For the compound `COCc1cc(-c2ccc(CC3CNCCO3)cc2-c2ccc(C#N)c(F)c2)on1` (stereo not drawn) [Example 129, 3-fluoro-2′-[3-(methoxymethyl)-1,2-oxazol-5-yl]-5′-[(morpholin-2-yl)methyl]-[1,1′-biphenyl]-4-carbonitrile], the 50% inhibitory concentration (IC50) was in the range of 100 to 1000 nM. With `COCc1ncc(-c2ccc(CC3CNCCO3)cc2-c2ccc(C#N)c(F)c2)o1` (stereo not drawn) [Example 130, 3-fluoro-2′-[2-(methoxymethyl)-1,3-oxazol-5-yl]-5′-[(morpholin-2-yl)methyl]-[1,1′-biphenyl]-4-carbonitrile] the figure was greater than 1000 nM; with `N#Cc1ccc(-c2cc(C[C@@H]3CN4CCC[C@H]4CO3)ccc2N2CCC2)cc1F` [Example 131, 5′-{[(3R,8aS)-hexahydro-1H-pyrrolo[2,1-c][1,4]oxazin-3-yl]methyl}-2′-(azetidin-1-yl)-3-fluoro-[1,1′-biphenyl]-4-carbonitrile], greater than 1000 nM.

Regarding `COc1cnc(-c2ccc(CC3CNCCO3)cc2-c2ccc(C#N)c(F)c2)cn1` (stereo not drawn) [Example 132, 3-fluoro-2′-(5-methoxypyrazin-2-yl)-5′-[(morpholin-2-yl)methyl]-[1,1′-biphenyl]-4-carbonitrile], the IC50 was greater than 1000 nM. As for `COc1ccc(-c2ccc(CC3CNCCO3)cc2-c2ccc(C#N)c(F)c2)nc1` (stereo not drawn) [Example 133, 3-fluoro-2′-(5-methoxypyridin-2-yl)-5′-[(morpholin-2-yl)methyl]-[1,1′-biphenyl]-4-carbonitrile], the figure is 100 to 1000 nM; as for `N#Cc1ccc(-c2cc(CC3CNCCO3)ccc2N2CCC2)cc1Cl` (stereo not drawn) [Example 134, 4-[2-(azetidin-1-yl)-5-(morpholin-2-ylmethyl)phenyl]-2-chloro-benzonitrile], greater than 1000 nM. As for `N#Cc1ccc(-c2cc(CC3CNC4(CC4)CO3)ccc2N2CCC2)cc1F` (stereo not drawn) [Example 135, 2′-(azetidin-1-yl)-3-fluoro-5′-({7-oxa-4-azaspiro[2.5]octan-6-yl}methyl)-[1,1′-biphenyl]-4-carbonitrile], the figure is greater than 1000 nM; as for `CC(C)(c1ccc(N2CCC2)c(-c2ccc(C#N)c(F)c2)c1)C1CNCCO1` (stereo not drawn) [Example 136, 2′-(azetidin-1-yl)-3-fluoro-5′-[2-(morpholin-2-yl)propan-2-yl]-[1,1′-biphenyl]-4-carbonitrile], greater than 1000 nM. With `N#Cc1ccc(-c2cc(CC3CNCCO3)ccc2N2CC(CO)C2)cc1F` (stereo not drawn) [Example 137, 3-fluoro-2′-[3-(hydroxymethyl)azetidin-1-yl]-5′-[(morpholin-2-yl)methyl]-[1,1′-biphenyl]-4-carbonitrile] the figure was 100 to 1000 nM; with `CC1(O)CCN(c2ccc(CC3CNCCO3)cc2-c2ccc(C#N)c(F)c2)CC1` (stereo not drawn) [Example 138, 3-fluoro-2′-(4-hydroxy-4-methylpiperidin-1-yl)-5′-[(morpholin-2-yl)methyl]-[1,1′-biphenyl]-4-carbonitrile], 25 to 100 nM; with `CC1(C)CNCC(Cc2ccc(N3CCC3)c(-c3ccc(C#N)c(F)c3)c2)O1` (stereo not drawn) [Example 139, 2'-(azetidin-1-yl)-5'-[(6,6-dimethylmorpholin-2-yl)methyl]-3-fluoro-[1,1'-biphenyl]-4-carbonitrile], 100 to 1000 nM. As to `COC1CN(c2ccc(CC3CNCCO3)cc2-c2ccc(C#N)c(F)c2)C1` (stereo not drawn) [Example 140, 3-fluoro-2′-(3-methoxyazetidin-1-yl)-5′-[(morpholin-2-yl)methyl]-[1,1′-biphenyl]-4-carbonitrile], the half-inhibitory concentration (IC50) was greater than 1000 nM. As for `N#Cc1ccc(-c2cc(CC3CNCCO3)ccc2C2CC2)cc1F` (stereo not drawn) [Example 141, 2′-cyclopropyl-3-fluoro-5′-[(morpholin-2-yl)methyl]-[1,1′-biphenyl]-4-carbonitrile], the figure is 100 to 1000 nM; as for `COc1ccc(CC2CNCCO2)cc1-c1ccc(C#N)c(F)c1` (stereo not drawn) [Example 142, 3-fluoro-2′-methoxy-5′-[(morpholin-2-yl)methyl]-[1,1′-biphenyl]-4-carbonitrile], greater than 1000 nM.

Turning to `N#Cc1ccc(-c2cc(CC3CNCCO3)ccc2N2CCCOCC2)cc1F` (stereo not drawn) [Example 143, 3-fluoro-5'-[(morpholin-2-yl)methyl]-2'-(1,4-oxazepan-4-yl)-[1,1'-biphenyl]-4-carbonitrile], the 50% inhibitory concentration (IC50) fell in the range of 100 to 1000 nM. As for `CC(c1ccc(N2CCC2)c(-c2ccc(C#N)c(F)c2)c1)C1CNCCO1` (stereo not drawn) [Example 144, 2′-(azetidin-1-yl)-3-fluoro-5′-[1-(morpholin-2-yl)ethyl]-[1,1′-biphenyl]-4-carbonitrile], the figure is greater than 1000 nM; as for `N#Cc1ccc(-c2cc(CC3CNCCO3)ccc2C2CCCO2)cc1F` (stereo not drawn) [Example 145, 3-fluoro-5′-[(morpholin-2-yl)methyl]-2′-(oxolan-2-yl)-[1,1′-biphenyl]-4-carbonitrile], greater than 1000 nM. As to `CN1CCOC(Cc2ccc(N3CCC3)c(-c3ccc(C#N)c(F)c3)c2)C1` (stereo not drawn) [Example 146, 2′-(azetidin-1-yl)-3-fluoro-5′-[(4-methylmorpholin-2-yl)methyl]-[1,1′-biphenyl]-4-carbonitrile], the IC50 was greater than 1000 nM. With `N#Cc1ccc(-c2cc(CC3CNCCO3)ccc2N2CCCC2)cc1F` (stereo not drawn) [Example 147, 3-fluoro-5′-[(morpholin-2-yl)methyl]-2′-(pyrrolidin-1-yl)-[1,1′-biphenyl]-4-carbonitrile] the figure was 100 to 1000 nM. On to `N#Cc1ccc(-c2cccc(CC3CNCCO3)c2-c2ccncc2)cc1F` (stereo not drawn) [Example 148, 3-fluoro-3′-[(morpholin-2-yl)methyl]-2′-(pyridin-4-yl)-[1,1′-biphenyl]-4-carbonitile], for which the 50% inhibitory concentration (IC50) was 100 to 1000 nM. With `CC(C)(C)N1CCN(c2ccc(CC3CNCCO3)cc2-c2ccc(C#N)c(F)c2)CC1` (stereo not drawn) [Example 149, 2′-(4-tert-butylpiperazin-1-yl)-3-fluoro-5′-[(morpholin-2-yl)methyl]-[1,1′-biphenyl]-4-carbonitrile] the figure was 100 to 1000 nM; with `N#Cc1ccc(-c2cc(CC3CNCCO3)ccc2C2COC2)cc1F` (stereo not drawn) [Example 150, 3-fluoro-5'-[(morpholin-2-yl)methyl]-2'-(oxetan-3-yl)-[1,1'-biphenyl]-4-carbonitrile], greater than 1000 nM. With `N#Cc1ccc(-c2cc(CC3CNCCO3)ccc2N2CCC(O)(C(F)(F)F)CC2)cc1F` (stereo not drawn) [Example 151, 3-fluoro-2′-[4-hydroxy-4-(trifluoromethyl)piperidin-1-yl]-5′-[(morpholin-2-yl)methyl]-[1,1′-biphenyl]-4-] the figure was 100 to 1000 nM; with `COCC1(O)CCCN(c2ccc(CC3CNCCO3)cc2-c2ccc(C#N)c(F)c2)CC1` (stereo not drawn) [Example 152, 3-fluoro-2′-[4-hydroxy-4-(methoxymethyl)azepan-1-yl]-5′-[(morpholin-2-yl)methyl]-[1,1′-biphenyl]-4-carbonitrile], 100 to 1000 nM.
